Measurements taken from ChEMBL document CHEMBL5226286, “The application of isatin-based multicomponent-reactions in the quest for new bioactive and druglike molecules” (Eur J Med Chem, 2021).
Converted amounts (≈) assume the structure as drawn. Blank lines part the entries; values can stand above or below the compound they belong to. The source made the active and inactive calls. The calls are words filed in the database; no cut-off is given here.

Experiments:
A549 [1] = test: Antiproliferative activity against human A549 cells; format: functional, cell-based
HepG2 = test: cells; format: functional, cell-based; settings: Homo sapiens
Description: Antiproliferative activity against human HepG2 cells

[2] = tested on: Syncephalastrum racemosum; test: Antifungal activity against Syncephalastrum racemosum RCMB 05922; format: functional
Streptococcus pneumoniae = test: Antibacterial activity against Streptococcus pneumoniae incubated for 24 to 48 hrs by agar diffusion well method; format: functional; settings: time 24-48 hrs
Candida albicans [3] = test: Antifungal activity against Candida albicans RCMB 05036; format: functional
Aspergillus fumigatus [4] = test: Antifungal activity against Aspergillus fumigatus RCMB 02568; format: functional
Escherichia coli [5] = test: Antibacterial activity against Escherichia coli incubated for 24 to 48 hrs by agar diffusion well method; format: functional; settings: time 24-48 hrs
Geotrichum candidum [6] = test: Antifungal activity against Geotrichum candidum RCMB 05097; format: functional
Bacillus subtilis [7] = test: Antibacterial activity against Bacillus subtilis incubated for 24 to 48 hrs by agar diffusion well method; format: functional; settings: time 24-48 hrs
Pseudomonas aeruginosa [8] = test: Antibacterial activity against Pseudomonas aeruginosa incubated for 24 to 48 hrs by agar diffusion well method; format: functional; settings: time 24-48 hrs
Bacillus subtilis [9] = test: Antibacterial activity against Bacillus subtilis ATCC 465; format: functional
Micrococcus luteus = test: Antibacterial activity against Micrococcus luteus PTCC 1110; format: functional
Pseudomonas aeruginosa [10] = test: Antibacterial activity against Pseudomonas aeruginosa ATCC 85327; format: functional
Bacillus pumilus = test: Antibacterial activity against Bacillus pumilus PTCC 1114; format: functional
[11] = tested on: Staphylococcus epidermidis; test: Antibacterial activity against Staphylococcus epidermidis ATCC 12228; format: functional
Streptococcus mutans = test: Antibacterial activity against Streptococcus mutans PTCC 1601; format: functional
Staphylococcus aureus [12] = test: Antibacterial activity against Staphylococcus aureus ATCC 25923; format: functional
Klebsiella pneumoniae = test: Antibacterial activity against Klebsiella pneumoniae ATCC 29655; format: functional
Escherichia coli [13] = test: Antimicrobial activity against Escherichia coli ATCC 25922; format: functional
Enterococcus faecalis = test: Antibacterial activity against Enterococcus faecalis ATCC 29737; format: functional
Aspergillus flavus = test: Antifungal activity against Aspergillus flavus; format: functional
Aspergillus niger = test: Antifungal activity against Aspergillus niger; format: functional
[14] = Antioxidant activity assessed as DPPH radical scavenging activity at 1 mg/ml relative to control; format: functional
Escherichia coli [15] = test: Antibacterial activity against Escherichia coli assessed as zone of inhibition; format: functional
Staphylococcus aureus [16] = test: Antibacterial activity against Staphylococcus aureus assessed as zone of inhibition; format: functional
HeLa [17] = test: Cytotoxicity against human HeLa cells incubated for 48 hrs by MTT assay; format: functional, cell-based
DU-145 = test: Cytotoxicity against human DU-145 cells incubated for 48 hrs by MTT assay; format: functional, cell-based; settings: DU-145, 48 h
A549 [18] = test: Cytotoxicity against human A549 cells incubated for 48 hrs by MTT assay; format: functional, cell-based; settings: A549, 48 h
MCF7 [19] = test: Cytotoxicity against human MCF7 cells incubated for 48 hrs by MTT assay; format: functional, cell-based; settings: MCF7, 48 h
Candida albicans [20] = test: Antifungal activity against Candida albicans RCMB 05036 assessed as zone of inhibition; format: functional
Aspergillus fumigatus [21] = test: Antifungal activity against Aspergillus fumigatus RCMB 02568 assessed as zone of inhibition; format: functional
Geotrichum candidum [22] = test: Antifungal activity against Geotrichum candidum RCMB 05097 assessed as zone of inhibition; format: functional
[23] = tested on: Syncephalastrum racemosum; test: Antifungal activity against Syncephalastrum racemosum RCMB 05922 assessed as zone of inhibition; format: functional
MCF7 [24] = test: Cytotoxicity against human MCF7 cells; format: functional, cell-based
MDA-MB-231 = test: cells; format: functional, cell-based; settings: Homo sapiens
Description: Antiproliferative activity against human MDA-MB-231 cells

HeLa [25] = test: Antiproliferative activity against human HeLa cells; format: functional, cell-based
MDA-MB-435 = test: Antiproliferative activity against human MDA-MB-435 cells; format: functional, cell-based
Candida albicans [26] = test: Antifungal activity against Candida albicans; format: functional
Candida tropicalis = test: Antifungal activity against Candida tropicalis; format: functional
Nakaseomyces glabratus = test: Antifungal activity against Candida glabrata; format: functional

Compound: Cc1coc2c1C(=O)C(=O)c1c-2ccc2c1CCCC2(C)C [TANSHINONE IIA]
IC50 (HepG2): 23.9 µM

Compound: CCOC1=Nc2ccccc2/C1=C\C(=O)c1ccc(Cl)cc1
diameter of the inhibition zone (DIZ) (Escherichia coli [15]): 6 mm | diameter of the inhibition zone (DIZ) (Staphylococcus aureus [16]): 6 mm

Compound: O=C(c1ccc(F)cc1)C1C(c2ccc(Cl)cc2)CNC12C(=O)Nc1ccccc12 (stereo unspecified)
Activity [14]: 88.7%

Compound: O=C1OCC2=C1C1(Nc3ccccc3N2)C(=O)N(Cc2ccccc2)c2ccccc21 (stereo unspecified)
IC50 (HeLa [17]): 2.3 µM | IC50 (DU-145): 1.1 µM | IC50 (A549 [18]): 1.3 µM | IC50 (MCF7 [19]): 2.2 µM

Compound: O=C1NC(=S)S[C@]12C1CCCN1[C@@]1(C(=O)Nc3ccccc31)[C@H]2c1ccccc1 (stereo partly specified)
diameter of the inhibition zone (DIZ) (Candida albicans [20]): 25 mm | diameter of the inhibition zone (DIZ) (Aspergillus fumigatus [21]): 16 mm | diameter of the inhibition zone (DIZ) (Geotrichum candidum [22]): 24 mm | diameter of the inhibition zone (DIZ) [23]: 14 mm

Compound: CCOC(=O)C1=C(C(=O)OCC)C2(NC1(C(=O)OCC)C(=O)OCC)C(=O)Nc1ccccc12 (stereo unspecified)
IC50 (MCF7 [24]): 28 µM

Compound: N#CC1=C(N)Oc2c(ccc3[nH]c4ccccc4c23)C12C(=O)N(Cc1cn(Cc3ccc(C(F)(F)F)cc3)nn1)c1ccccc12 (stereo unspecified)
IC50 (MDA-MB-231): 61.9 µM | IC50 (HeLa [25]): 3.5 µM

Compound: Cc1ccc2c(c1)C1(Nc3ccccc3NC3=C1C(=O)OC3)C(=O)N2 (stereo unspecified)
IC50 (HeLa [17]): 9.6 µM | IC50 (DU-145): 1.3 µM | IC50 (A549 [18]): 1.5 µM | IC50 (MCF7 [19]): 2.1 µM

Compound: N#CC1=C(N)OC2=C(C(=O)c3ccccc32)C12C(=O)Nc1ccc(Cl)cc12 (stereo unspecified)
IC50 (MDA-MB-435): 2.1 µM

Compound: CCOC(=O)C1=C(C(=O)OCC)C2(NC1(C(=O)OCC)C(=O)OCC)C(=O)N(C)c1ccc(C)cc12 (stereo unspecified)
IC50 (MCF7 [24]): 20.8 µM

Continued, in another order:

IC50 (A549 [1]): 66.3 µM
Compound: Cc1ccc2c(c1)C1(C(=O)N2)N2CSCC2C(c2ncc[nH]2)C1(C#N)C(=O)c1c[nH]c2ccccc12 (stereo unspecified)

MIC [2]: 1.95 µg/mL (≈ 3.15 µM) | MIC (Streptococcus pneumoniae): 0.015 µg/mL (≈ 0.0242 µM) | MIC (Candida albicans [3]): inactive | MIC (Aspergillus fumigatus [4]): 7.81 µg/mL (≈ 12.6 µM) | MIC (Escherichia coli [5]): 1.95 µg/mL (≈ 3.15 µM) | MIC (Geotrichum candidum [6]): 0.03 µg/mL (≈ 0.0484 µM) | MIC (Bacillus subtilis [7]): 0.015 µg/mL (≈ 0.0242 µM) | MIC (Pseudomonas aeruginosa [8]): inactive
Compound: CCOC(=O)N1C/C(=C\c2ccc(F)cc2F)C(=O)[C@@]2(C1)[C@H](c1ccc(F)cc1F)[C@H]1CCCN1[C@]21C(=O)Nc2ccccc21

MIC (Bacillus subtilis [9]): 4 µg/mL (≈ 8.52 µM) | MIC (Micrococcus luteus): 4 µg/mL (≈ 8.52 µM) | MIC (Pseudomonas aeruginosa [10]): 8 µg/mL (≈ 17 µM) | MIC (Bacillus pumilus): < 2 µg/mL | MIC [11]: 2 µg/mL (≈ 4.26 µM) | MIC (Streptococcus mutans): < 2 µg/mL | MIC (Staphylococcus aureus [12]): 2 µg/mL (≈ 4.26 µM) | MIC (Klebsiella pneumoniae): 4 µg/mL (≈ 8.52 µM) | MIC (Escherichia coli [13]): < 2 µg/mL | MIC (Enterococcus faecalis): < 2 µg/mL
Compound: O=C1c2c(Cl)cccc2NC2(C(=O)Nc3ccc(Br)cc32)N1Nc1ccccc1 (stereo unspecified)

MIC (Bacillus subtilis [9]): 8 µg/mL (≈ 20.5 µM) | MIC (Micrococcus luteus): 8 µg/mL (≈ 20.5 µM) | MIC (Bacillus pumilus): 4 µg/mL (≈ 10.2 µM) | MIC [11]: 4 µg/mL (≈ 10.2 µM) | MIC (Streptococcus mutans): 8 µg/mL (≈ 20.5 µM) | MIC (Staphylococcus aureus [12]): 2 µg/mL (≈ 5.12 µM) | MIC (Escherichia coli [13]): 32 µg/mL (≈ 81.9 µM) | MIC (Enterococcus faecalis): 128 µg/mL (≈ 328 µM)
Compound: O=C1c2c(Cl)cccc2NC2(C(=O)Nc3ccccc32)N1Nc1ccccc1 (stereo unspecified)

IC50 (A549 [1]): 66.3 µM
Compound: COc1ccc2[nH]cc(C(=O)C3(C#N)C(c4ncc[nH]4)CN(C)C34C(=O)Nc3ccccc34)c2c1 (stereo unspecified)

MIC (Aspergillus flavus): 20 µg/mL (≈ 44.4 µM) | MIC (Aspergillus niger): 20 µg/mL (≈ 44.4 µM)
Compound: O=C(c1ccc(F)cc1)C1C(c2ccc(Cl)cc2)C(CO)NC12C(=O)Nc1ccccc12 (stereo unspecified)
Activity [14]: 88.1%

MIC [2]: 0.98 µg/mL (≈ 1.61 µM) | MIC (Streptococcus pneumoniae): 0.98 µg/mL (≈ 1.61 µM) | MIC (Candida albicans [3]): inactive | MIC (Aspergillus fumigatus [4]): 1.95 µg/mL (≈ 3.21 µM) | MIC (Escherichia coli [5]): 15.6 µg/mL (≈ 25.7 µM) | MIC (Geotrichum candidum [6]): 0.49 µg/mL (≈ 0.806 µM) | MIC (Bacillus subtilis [7]): 0.015 µg/mL (≈ 0.0247 µM) | MIC (Pseudomonas aeruginosa [8]): inactive
Compound: CCOC(=O)N1C/C(=C\c2ccc(OC)cc2)C(=O)[C@@]2(C1)[C@H](c1ccc(OC)cc1)[C@H]1CCCN1[C@]21C(=O)Nc2ccccc21

MIC (Aspergillus flavus): 30 µg/mL (≈ 60.6 µM) | MIC (Aspergillus niger): 20 µg/mL (≈ 40.4 µM)
Compound: O=C(c1ccc(F)cc1)C1C(c2ccc(Br)cc2)C(CO)NC12C(=O)Nc1ccccc12 (stereo unspecified)
Activity [14]: 87.4%

MIC (Bacillus subtilis [9]): 4 µg/mL (≈ 9.97 µM) | MIC (Micrococcus luteus): 8 µg/mL (≈ 19.9 µM) | MIC (Pseudomonas aeruginosa [10]): 32 µg/mL (≈ 79.7 µM) | MIC (Bacillus pumilus): 4 µg/mL (≈ 9.97 µM) | MIC [11]: 4 µg/mL (≈ 9.97 µM) | MIC (Streptococcus mutans): < 2 µg/mL | MIC (Staphylococcus aureus [12]): 4 µg/mL (≈ 9.97 µM) | MIC (Klebsiella pneumoniae): 8 µg/mL (≈ 19.9 µM) | MIC (Escherichia coli [13]): 4 µg/mL (≈ 9.97 µM) | MIC (Enterococcus faecalis): 16 µg/mL (≈ 39.9 µM)
Compound: O=C1c2ccccc2NC2(C(=O)Nc3ccc([N+](=O)[O-])cc32)N1Nc1ccccc1 (stereo unspecified)

MIC (Candida albicans [26]): 12.5 µg/mL (≈ 22.7 µM) | MIC (Candida tropicalis): 12.5 µg/mL (≈ 22.7 µM) | MIC (Nakaseomyces glabratus): 12.5 µg/mL (≈ 22.7 µM)
Compound: COc1ccccc1C1C2CCCN2C2(C(=O)Nc3ccccc32)C1C(=O)c1ccc(-c2ccc(F)cc2F)cc1 (stereo unspecified)
